Key:
[1] = assay type: physicochemical
Method: The tests were conducted on 2±0.3 mg of polymer, placed in polypropyplene vials filled with 1 ml of deionized H2O and kept in a thermostatic bath at 37° C. for 33 days. At regular intervals the samples were withdrawn, the degradation medium was separated for evaluation of the pH while the degraded polymers were dried in a ventilated stove at 50° C. for 3 h and then analysed by gel permeation chromatography (GPC).
The pH measurements were conducted on the degradation means (deionized H2O) after pre-set times. In particular, the degradation means were withdrawn from the vials containing the polymer, prepared as reported in example 1, during the degradation tests in the previous example and the measurement was performed using a pH-meter on the samples just taken at a temperature of 37° C.

bEND.3 cells = experiment: Confocal microscopy of nanoparticle internalization and RhB delivery; assay type: cell-based, mice; conditions: 6 h; nanoparticles 10 μg/ml, free RhB 113 ng/ml
Method: Immortalized endothelial cells of mice, bEND.3 (American Type Culture Collection, Manassas, Va., USA) were cultivated in a DMEM medium with high levels of glucose in the presence of 10% of FBS, L-glutamine 2 mM, 1000 U/ml penicillin and 1 mg/ml of streptomycin. The cells split from 2 to 20 times were kept in a humidified incubator for cell cultures at 37° C. and 5%, CO2. This cell line was chosen because it is a suitable model for providing an endothelial barrier. […] The free rhodamine (113 ng/ml, the same quantity of rhodamine administered with the nanoparticles), was used as negative control for the absorption test for nanoparticles loaded with rhodamine B. […] Lysotracker-red-[…] 50 nM was added to mark the lysosomes and verify the intracellular localization of the nanoparticles. To understand the release potential by the nanoparticles, the internalization of nanoparticles loaded with RhB by bEND.3 cells was compared with the detection of fluorescent RhB not loaded on nanoparticles (FIGS. 15a and 15b respectively).

Row | Compound | pH of the degradation means (lower values / end of the test) [1] | RhB internalization in cells (bEND.3 cells)
1 | polycaprolactone [PCL] | comparable | 
2 | CCN(CC)c1ccc2c(-c3ccccc3C(=O)O)c3ccc(=[N+](CC)CC)cc-3oc2c1.[Cl-] [Free RhB, rhodamine B] |  | not observed
